Test results as given in PubChem BioAssay AID588587 (The Scripps Research Institute Molecular Screening Center, 2011).
Calls of active or inactive are those of the source.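 How the source made its calls: active means inhibition above 60%; inactive means inhibition at or below 60%.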

System: Fam108b (Abhd17b) [Mus musculus]
Test: Fam108b hydrolase inhibitors in membrane proteome – cell lysate, gel-based competitive ABPP, membrane form, set 2, SAR follow-up (AID 588587)
Details: Fam108b-overexpressing membrane proteome, FP-Rh, at 20 µM, active compounds read high

inhibition | Compound
0% (inactive) | CC(C)(C)c1nc2scc(-c3ccccc3)c2c(=O)o1
0% (inactive) | O=c1oc(-c2ccccc2F)nc2scc(-c3cccs3)c12
